Experimental data taken from patent EP0917542B1, “PROCESS FOR POLYMERIZATION OF OLEFINIC MONOMERS” (E.I. DU PONT DE NEMOURS AND COMPANY, priority 1996, dated 1998).

Assay: Stability in neutral aqueous dispersion, followed by 19F NMR
Assay type: physicochemical
Details: aqueous dispersion with ammonium perfluorononanoate surfactant; heated in an oil bath at 100°C for 2 hr
Description: A solution of 2.41 g of ammonium perfluorononanoate (surfactant) in 1-L of deionized water was processed for 5 minutes through a Microfluidizer™ Model 110T with 4.14 g of n-perfluorobutanesulfonyl chloride. The mixture was cooled by passing though a coil chilled in ice water during the processing. A clear mixture was obtained. […] A second aliquot of the solution was heated in an oil bath at 100°C for 2 hr and then analyzed by ^19F NMR. […] A more concentrated mixture was prepared by adding 10.4 g of n-perfluorobutanesulfonyl chloride to a solution of 0.5 g ammonium perfluorononanoate in 100 mL of deionized water with processing through the Microfluidizer™.

O=S(=O)(Cl)C(F)(F)C(F)(F)C(F)(F)C(F)(F)F [n-perfluorobutanesulfonyl chloride]
19F NMR spectrum after heating (stability in a neutral aqueous mixture): essentially unchanged
